Measured values: patent US20260124197A1, “NOVEL HETEROBICYCLIC COMPOUND FOR INHIBITING YAP-TEAD INTERACTION AND PHARMACEUTICAL COMPOSITION COMPRISING SAME” (priority 2022, published 2026)

Legend:
[1] = test system: TEAD transcriptional activity; assay: TEAD reporter activity inhibition test (luciferase reporter, MCF7 cell line); format: cell-based; details: Homo sapiens; TEAD (GTIIC) firefly luciferase reporter MCF7 cell line, 24 hours, ONE-Glo luminescence
Protocol: Experimental Example 1: TEAD Reporter Activity Inhibition Test
The ability of the synthetic compounds to inhibit TEAD target gene transcription was measured. This evaluation method measures the transcriptional activity of TEAD by measuring the luciferase luminescence expressed when TEAD binds to a target gene and activates transcription using the MCF7 cell line (BPS Bioscience, Inc., USA) in which a firefly luciferase reporter gene has been introduced into the specific binding structure of TEAD, GTIIC (5′-ACATTCCA-3′). Cell lines were cultured in MEM medium added with 10% FBS, 1% Penicillin/Streptomycin, 1% non-essential amino acids, 10 μg/ml insulin, and 400 μg/ml Geneticin, and Geneticin was excluded when testing for inhibition of TEAD reporter activity. […] cells/100 μl were dispensed into a white 96-well plate and cultured for 6 hours. 50 μl of the test compound diluted to 3× concentration was mixed into each well. After 24 hours of cell culture, the luciferase signal was measured by luminescence using the ONE-Glo luciferase assay system (Promega, E6120) following the manufacturer's protocol. The 50% inhibition value (IC50) for TEAD transcriptional activity was calculated using GraphPad Prism 9.
If the IC50 value is less than 100 nM, it is indicated as A, if it is at least 100 nM but less than 500 nM, it is indicated as B, and if it is 500 nM or more, it is indicated as C.

NCI-H226 cells = assay: Cell growth inhibition test (SRB); format: cell-based; details: Homo sapiens, 144 h; NCI-H226 mesothelioma cell line lacking the NF2 gene, cultured for 6 days, SRB test method
Protocol: Experimental Example 2: Cell Growth Inhibition Test
The synthetic compound was confirmed to inhibit cell growth in NCI-H226 cells. NCI-H226 is a mesothelioma cancer cell line lacking the NF2 gene, and was cultured in RPMI 1640 medium supplemented added with 10% FBS and 1% Penicillin/Streptomycin. Cultured cells were dispensed into 96-well plates at 0.7×10^3 cells/100 μl and cultured for 24 hours, then 100 μl of the test compound diluted to a 2× concentration were mixed into each well and cultured for 6 days. The SRB test method was used to measure cell growth inhibition, and the 50% inhibition value (GI50) for cell growth by the compound was calculated using GraphPad Prism 9.
If the GI50 value is less than 100 nM, it is indicated as A, and if it is 100 nM or more, it is indicated as B.

IC50 [1] | GI50 (NCI-H226 cells) | Compound
< 0.1 µM | < 0.1 µM | CNS(=O)(=O)c1ccc2c(c1)c(-c1cn(CCOC)cn1)cn2-c1ccc(C(F)(F)F)cc1 [Example 38, 3-(1-(2-methoxyethyl)-1H-imidazol-4-yl)-N-methyl-1-(4-(trifluoromethyl)phenyl)-1H-indole-5-sulfonamide]
< 0.1 µM | < 0.1 µM | CNS(=O)(=O)c1ccc2c(c1)c(-c1ccoc1)cn2-c1ccc(C(F)(F)F)cc1 [Example 23, 3-(furan-3-yl)-N-methyl-1-(4-(trifluoromethyl)phenyl)-1H-indole-5-sulfonamide]
< 0.1 µM | < 0.1 µM | CNS(=O)(=O)c1ccc2c(c1)c(-c1cn(C3CC3)cn1)nn2-c1ccc(C(F)(F)F)cc1 [Example 44, 3-(1-cyclopropyl-1H-imidazol-4-yl)-N-methyl-1-(4-(trifluoromethyl)phenyl)-1H-indazol-5-sulfonamide]
< 0.1 µM | < 0.1 µM | CNS(=O)(=O)c1ccc2c(c1)c(-c1ncccc1F)cn2-c1ccc(C(F)(F)F)cc1 [Example 20, 3-(3-fluoropyridin-2-yl)-N-methyl-1-(4-(trifluoromethyl)phenyl)-1H-indole-5-sulfonamide]
< 0.1 µM | < 0.1 µM | CNS(=O)(=O)c1ccc2c(c1)c(-c1cn(C)cn1)cn2-c1ccc(C(F)(F)F)cc1 [Example 2, N-methyl-3-(1-methyl-1H-imidazol-4-yl)-1-(4-(trifluoromethyl)phenyl)-1H-indole-5-sulfonamide]
< 0.1 µM | < 0.1 µM | CNS(=O)(=O)c1cnc2c(c1)c(-c1cn(C3CC3)cn1)cn2-c1ccc(C(F)(F)F)cc1 [Example 43, 3-(1-cyclopropyl-1H-imidazol-4-yl)-N-methyl-1-(4-(trifluoromethyl)phenyl)-1H-pyrrolo[2,3-b]pyridine-5-sulfonamide]
< 0.1 µM | < 0.1 µM | CCn1cnc(-c2cn(-c3ccc(C(F)(F)F)cc3)c3ccc(S(=O)(=O)NC)cc23)c1 [Example 11, 3-(1-ethyl-1H-imidazol-4-yl)-N-methyl-1-(4-(trifluoromethyl)phenyl)-1H-indole-5-sulfonamide]
< 0.1 µM | < 0.1 µM | CNS(=O)(=O)c1ccc2c(c1)c(-c1cn(C3CC3)cn1)cn2-c1ccc(C(F)(F)F)cc1 [Example 28, 3-(1-cyclopropyl-1H-imidazol-4-yl)-N-methyl-1-(4-(trifluoromethyl)phenyl)-1H-indole-5-sulfonamide]
< 0.1 µM | < 0.1 µM | CNS(=O)(=O)c1ccc2c(c1)c(-c1ccccn1)cn2-c1ccc(C(F)(F)F)cc1 [Example 8, N-methyl-3-(pyridin-2-yl)-1-(4-(trifluoromethyl)phenyl)-1H-indole-5-sulfonamide]
< 0.1 µM | < 0.1 µM | CNS(=O)(=O)c1ccc2c(c1)c(-c1cn(C3CCC3)cn1)cn2-c1ccc(C(F)(F)F)cc1 [Example 16]
< 0.1 µM | < 0.1 µM | CNS(=O)(=O)c1ccc2c(c1)c(-c1ccco1)cn2-c1ccc(C(F)(F)F)cc1 [Example 31, 3-(furan-2-yl)-N-methyl-1-(4-(trifluoromethyl)phenyl)-1H-indole-5-sulfonamide]
< 0.1 µM | < 0.1 µM | CNS(=O)(=O)c1ccc2c(c1)c(-c1cnc(C)o1)cn2-c1ccc(C(F)(F)F)cc1 [Example 32, N-methyl-3-(2-methyloxazol-5-yl)-1-(4-(trifluoromethyl)phenyl)-1H-indole-5-sulfonamide]
< 0.1 µM | < 0.1 µM | CNS(=O)(=O)c1ccc2c(c1)c(-c1cn(C3CC3)cn1)cn2-c1ccc(C(F)(F)F)cc1F [Example 42, 3-(1-cyclopropyl-1H-imidazol-4-yl)-1-(2-fluoro-4-(trifluoromethyl)phenyl)-N-methyl-1H-indole-5-sulfonamide]
< 0.1 µM | ≥ 0.1 µM | CNS(=O)(=O)c1ccc2c(c1)c(-c1ccccc1F)cn2-c1ccc(C(F)(F)F)cc1 [Example 13, 3-(2-fluorophenyl)-N-methyl-1-(4-(trifluoromethyl)phenyl)-1H-indole-5-sulfonamide]
< 0.1 µM | < 0.1 µM | CNS(=O)(=O)c1ccc2c(c1)c(-c1ccc(C)o1)cn2-c1ccc(C(F)(F)F)cc1 [Example 10, N-methyl-3-(5-methylfuran-2-yl)-1-(4-(trifluoromethyl)phenyl)-1H-indole-5-sulfonamide]
